Reference: ChEMBL document CHEMBL1156766, “Chloro-substituted 3-alkylamino-4H-1,2,4-benzothiadiazine 1,1-dioxides as ATP-sensitive potassium channel activators: impact of the position of the chlorine atom on the aromatic ring on activity and tissue selectivity” (J Med Chem, 2010)
The source made the active and inactive calls. The rule behind the calls is not given here.

Experiments:
[1] = Inhibition of glucose-induced insulin secretion in rat pancreatic islets assessed as residual insulin release at 50 uM; assay type: functional, Pancreatic islet
[2] = Inhibition of glucose-induced insulin secretion in rat pancreatic islets assessed as residual insulin release at 10 uM; assay type: functional, Pancreatic islet
[3] = Inhibition of glucose-induced insulin secretion in rat pancreatic islets assessed as residual insulin release at 1 uM; assay type: functional, Pancreatic islet
[4] = Inhibition of glucose-induced insulin secretion in rat pancreatic islets assessed as residual insulin release at 0.1 uM; assay type: functional, Pancreatic islet
[5] = system: Aorta; experiment: Myorelaxant activity in rat aortic ring assessed as inhibition of KCL-induced contraction; assay type: functional, tissue-based
[6] = Inhibition of glucose-induced insulin secretion in rat pancreatic islets assessed as residual insulin release; assay type: functional, cell-based; settings: Pancreatic islet
[7] = Ratio of EC50 for rat aortic ring to IC50 for rat pancreatic islets; assay type: functional, Aorta
[8] = Dissociation constant, pKa of the compound; assay type: physicochemical
[9] = Increase in 86Rb outflow in perfused rat pancreatic islets at 10 uM in presence of extracellular calcium and glucose; assay type: functional, Pancreatic islet
[10] = biological target: Sulfonylurea receptor 1, Kir6.2 (Homo sapiens) (UniProt Q14654+Q09428); experiment: Activation of human recombinant SUR1/Kir6.2 channel expressed in HEK293 cells assessed as increase in ionic current by whole cell patch clamp assay in presence of KATP channel blocker Tolbutamide; assay type: cell-based
[11] = biological target: Sulfonylurea receptor 1, Kir6.2 (Homo sapiens, UniProt Q09428+Q14654); experiment: Activation of human recombinant SUR1/Kir6.2 channel expressed in HEK293 cells assessed as increase in ionic current by whole cell patch clamp assay; assay type: cell-based
Chain of Sulfonylurea receptor 1, Kir6.2 (Q14654 whole entry): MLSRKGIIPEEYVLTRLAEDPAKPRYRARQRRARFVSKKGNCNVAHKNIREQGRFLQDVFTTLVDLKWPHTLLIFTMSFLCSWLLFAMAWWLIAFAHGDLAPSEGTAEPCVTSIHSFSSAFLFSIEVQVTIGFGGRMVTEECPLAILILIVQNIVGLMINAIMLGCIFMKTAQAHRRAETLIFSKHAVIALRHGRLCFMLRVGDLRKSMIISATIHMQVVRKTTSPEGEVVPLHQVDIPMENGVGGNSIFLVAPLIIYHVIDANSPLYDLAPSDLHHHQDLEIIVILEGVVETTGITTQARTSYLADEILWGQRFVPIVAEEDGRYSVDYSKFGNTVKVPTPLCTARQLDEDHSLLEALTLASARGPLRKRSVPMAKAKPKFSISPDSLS
Chain of Sulfonylurea receptor 1, Kir6.2 (Q09428 whole entry): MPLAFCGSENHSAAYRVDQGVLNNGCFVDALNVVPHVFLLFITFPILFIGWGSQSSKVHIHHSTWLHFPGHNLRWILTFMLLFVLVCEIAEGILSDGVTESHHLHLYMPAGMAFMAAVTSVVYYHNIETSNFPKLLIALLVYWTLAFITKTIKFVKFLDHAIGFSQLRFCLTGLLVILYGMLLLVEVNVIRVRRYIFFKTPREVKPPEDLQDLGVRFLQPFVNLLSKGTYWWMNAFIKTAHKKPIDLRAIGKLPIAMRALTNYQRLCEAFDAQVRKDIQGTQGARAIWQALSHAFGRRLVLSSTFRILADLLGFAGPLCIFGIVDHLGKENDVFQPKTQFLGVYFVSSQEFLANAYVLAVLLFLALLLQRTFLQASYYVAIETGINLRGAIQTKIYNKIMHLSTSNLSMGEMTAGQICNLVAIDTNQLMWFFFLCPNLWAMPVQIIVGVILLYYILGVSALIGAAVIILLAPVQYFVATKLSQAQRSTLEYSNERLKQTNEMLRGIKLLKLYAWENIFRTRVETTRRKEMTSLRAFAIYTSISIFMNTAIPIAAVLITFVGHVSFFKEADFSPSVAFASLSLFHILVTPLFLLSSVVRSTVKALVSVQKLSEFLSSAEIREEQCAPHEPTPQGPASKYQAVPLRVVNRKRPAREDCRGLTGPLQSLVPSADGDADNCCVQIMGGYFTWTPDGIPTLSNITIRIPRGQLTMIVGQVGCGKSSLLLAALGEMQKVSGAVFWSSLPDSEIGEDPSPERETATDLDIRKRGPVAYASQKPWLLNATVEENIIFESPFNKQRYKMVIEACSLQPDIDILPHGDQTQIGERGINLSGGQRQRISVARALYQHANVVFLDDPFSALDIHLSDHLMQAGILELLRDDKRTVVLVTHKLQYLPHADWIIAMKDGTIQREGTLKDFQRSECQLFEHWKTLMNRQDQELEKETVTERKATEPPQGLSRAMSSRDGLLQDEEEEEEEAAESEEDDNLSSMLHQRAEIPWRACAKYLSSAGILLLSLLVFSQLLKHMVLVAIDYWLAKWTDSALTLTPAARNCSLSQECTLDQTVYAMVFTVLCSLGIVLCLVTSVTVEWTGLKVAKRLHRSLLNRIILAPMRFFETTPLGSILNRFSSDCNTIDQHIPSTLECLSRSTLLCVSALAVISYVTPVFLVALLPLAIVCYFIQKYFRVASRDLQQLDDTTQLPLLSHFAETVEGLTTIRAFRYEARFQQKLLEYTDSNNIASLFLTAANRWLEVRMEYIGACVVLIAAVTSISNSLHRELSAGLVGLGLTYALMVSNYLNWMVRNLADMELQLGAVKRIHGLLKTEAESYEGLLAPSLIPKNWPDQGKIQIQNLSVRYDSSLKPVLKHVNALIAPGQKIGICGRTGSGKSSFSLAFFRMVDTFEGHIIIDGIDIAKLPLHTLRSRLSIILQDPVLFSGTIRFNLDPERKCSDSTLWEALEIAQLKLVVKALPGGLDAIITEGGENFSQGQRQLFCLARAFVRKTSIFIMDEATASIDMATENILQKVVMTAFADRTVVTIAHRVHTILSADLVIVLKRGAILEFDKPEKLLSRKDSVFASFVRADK

EC50 [5] [µM]	Structure (SMILES)	Activity [1] [%]	Activity [2] [%]	Activity [3] [%]	further results
53.4	CC(C)NC1=NS(=O)(=O)c2ccc(Cl)cc2N1	6.38	7.51	13.2	Activity [4]: 76.72%; IC50 [6]: 0.23 µM; Ratio EC50 [7]: 230; pKa [8]: 9.35
> 300	O=S1(=O)N=C(NC2CCC2)Nc2cc(Cl)ccc21	9.58	11.27	66.17	Activity [9]: 1.45 %/min; Activity [10]: inactive
–	CCCNC1=NS(=O)(=O)c2cc(Cl)ccc2N1	3.56	14.24	83.41	–
156	O=S1(=O)N=C(NC2CC2)Nc2cc(Cl)ccc21	7.97	12.74	93.02	–
126	O=S1(=O)N=C(NC2CCC2)Nc2c(Cl)cccc21	102.55	–	–	–
–	O=S1(=O)NC(NC2CCC2)=Nc2cc(Cl)ccc21	–	–	–	EC50 [11]: 0.08 µM
90.4	CCNC1=NS(=O)(=O)c2cccc(Cl)c2N1	80.4	–	–	–
73.2	CCCNC1=NS(=O)(=O)c2ccc(Cl)cc2N1	8.74	14.45	71.5	–
190	O=S1(=O)N=C(NC2CC2)Nc2ccc(Cl)cc21	5.82	26.56	84	–
–	O=S1(=O)N=C(NC2CCC2)Nc2ccc(Cl)cc21	8.11	6.44	60.19	IC50 [6]: 0.48 µM; Ratio EC50 [7]: 75
180	CCCNC1=NS(=O)(=O)c2cccc(Cl)c2N1	94.69	–	–	–
> 300	CCNC1=NS(=O)(=O)c2c(Cl)cccc2N1	–	37.55	95.72	–
> 300	CC(C)NC1=NS(=O)(=O)c2cccc(Cl)c2N1	96.88	–	–	pKa [8]: 9.11
–	CC(C)NC1=NS(=O)(=O)c2cc(Cl)c(Cl)cc2N1	4.96	6.29	13.19	–
–	CC(C)NC1=NS(=O)(=O)c2cc(Cl)ccc2N1	5.66	4.84	36.19	Activity [4]: 90.41%
–	CCNC1=NS(=O)(=O)c2cc(Cl)ccc2N1	2.09	10.65	40.79	–
> 30	O=S1(=O)N=C(NC2CCC2)Nc2cccc(Cl)c21	–	30.23	77.56	–
54.8	CCNC1=NS(=O)(=O)c2ccc(Cl)cc2N1	–	9.55	21.7	–
